Data: patent US20260001853A1, “ASCORBIC ACID DERIVATIVE OR SALT THEREOF, AND COSMETIC THEREOF” (SEIWA KASEI COMPANY, LIMITED, priority 2022, published 2026)

Columns and labels:
[1] = system: Normal human dermal fibroblasts (NHDF); assay: Hyaluronic acid production promoting effect (ELISA of supernatant); type: cell-based; settings: amount of hyaluronic acid produced, % with control group taken as 100%; sample at 10 mmol/L or less, 48 hours, N=3
Experimental: Normal human dermal fibroblasts (NHDF) were prepared in D-MEM containing 5% (v/v) fetal bovine serum to a cell density of 2.5× 10^4 cells/well, and then pre-incubated on a 96-well plate for 24 hours. After removing the medium, samples prepared in serum-free D-MEM were added to each well and cultured for 48 hours. After the culture was completed, the amount of hyaluronic acid in the supernatant was quantified by ELISA method. The measurement was performed with N=3.
(§1) The amount of hyaluronic acid produced when the samples were measured at a concentration of 10 mmol/L or less was compared with that of the control group, and the results (% values when the control group is taken as 100%) are shown in Tables 18 to 20 based on the following criteria. • <100%: ± • 100-120%: + • 120-150%: ++ • 150%: +++

[2] = Stability test (residual rate by HPLC, odor, coloring); type: physicochemical; settings: 1% aqueous solution; for Coloring / Odor: total score of 10 panelists
Experimental: With a dilute potassium hydroxide aqueous solution, 1% aqueous solution of each test sample was adjusted to pH 6, placed in a 50 mL screw tube, sealed, […], and then subjected to HPLC measurement (using a liquid chromatograph manufactured by Shimadzu Corporation) to determine the residual rate from the peak area. The residual rate, odor, and coloring degree were evaluated according to the following methods and criteria.
Residual rate: • ⊚: 90% or more • ◯: 80% or more, less than 90% • Δ: 60% or more, less than 80% • x: 20% or more, less than 60% • xx: Less than 20%
Evaluation was made by 10 panelists according to the following criteria. • 3: Almost odorless • 2: There is a slight strange odor. • 1: A strong odor is detected.
Based on the evaluation results, the following classification was made: • ⊚: Total score of 10 panelists is 25 or more • ◯: Total score of 10 panelists is 20-24 • Δ: Total score of 10 panelists is 16-19 • x: The total score of 10 panelists is 15 or less
Evaluation was made by 10 panelists according to the following criteria. • 3: Almost no change compared to immediately after preparation. • 2: Color changes compared to immediately after preparation. • 1: Strongly colored compared to immediately after preparation.
Based on the evaluation results, the following classification was made: • ◯: Total score of 10 panelists is 25 or more • Δ: Total score of 10 panelists is 16-24 • x: The total score of 10 panelists is 15 or less

B16 melanoma 4A5 cells = assay: Melanin production inhibitory effect (theophylline-induced melanin production); type: cell-based, mouse; settings: melanin production inhibition rate, sample at a concentration of 10 mM or less, 3 days culture, theophylline 1 mmol/L, N=4
Experimental: As a test of the whitening effect, the effect on theophylline-induced melanin production in B16 melanoma 4A5 cells was evaluated for the ascorbic acid derivatives of the present invention according to the following procedure. A similar evaluation was also performed for a known ascorbic acid derivative for comparison. The results are shown in Tables 9 to 11. • (1) B16 mouse melanoma 4A5 cells were seeded in a 48-well plate at a cell density of 8.0×10^3 cells/well. • (2) After culturing for 24 hours in Dulbecco's modified Eagle's medium (manufactured by SIGMA, hereinafter abbreviated as “D-MEM”) containing 10% fetal bovine serum, the medium was replaced with D-MEM containing 10% fetal bovine serum containing theophylline (final concentration 1 mmol/L) and a specified concentration of a sample. • (3) After culturing for 3 days in the presence of the sample, the medium was removed using an aspirator, distilled water was added, and the cells were disrupted by ultrasonication. • (4) The amount of protein was then quantified using a BCA protein assay kit (manufactured by PIERCE), and the amount of melanin produced was measured by an alkali solubilization method. Sodium hydroxide was added to the cell lysate to a final concentration of 1 mol/L, and the solution was dissolved by heating (60° C., 30 minutes), thereafter the absorbance at 405 nm was measured using a microplate reader. The amount of melanin was calculated from a calibration curve prepared using synthetic melanin (SIGMA) as a standard. The amount of melanin per unit protein was calculated by dividing the amount of melanin by the amount of protein. • (5) The melanin production inhibition rate was calculated using the following formula.
[In the formula, A represents the amount of melanin per unit protein (g/g) when the sample was added, B represents the amount of melanin per unit protein (g/g) in the normal group, and C represents the amount of melanin per unit protein (g/g) in the control group.]
The melanin production inhibition rate when the sample was measured at a concentration of 10 mM or less is expressed as follows. The measurement was performed with N=4. • <20%: ± • 20-40%: + • 40-60%: ++ • 60-100%: +++

[3] = system: Normal human dermal fibroblasts; assay: Collagen production promoting effect (ELISA of supernatant); type: cell-based; settings: amount of collagen produced, % with control group taken as 100%; sample at 10 mmol/L or less, 48 hours, N=3
Experimental: Normal human dermal fibroblasts were prepared in D-MEM containing 5% (v/v) fetal bovine serum to a cell density of […] cells/well, and pre incubated on a 96-well plate for 24 hours. After removing the medium, samples prepared to a predetermined concentration in D-MEM containing 5% (v/v) fetal bovine serum were added to each well and cultured for 48 hours. After completion of the culture, the amount of free collagen in the supernatant was quantified by ELISA method. The measurement was performed with N=3.
as §1, with “of collagen” for “of hyaluronic acid”, “Tables 15” for “Tables 18”, “to 17” for “to 20”, “• 120%:” for “• 120-150%:”, “++” for “++ • 150%: +++”

[4] = pH 6, stored at 50° C., four weeks later
[5] = pH 6, stored at 50° C., two weeks later

Residual rate ([2]; pH 6, 50° C., initial) | Residual rate [2, 4] | Residual rate [2, 5] | Structure (SMILES) | Hyaluronic acid production promoting effect [1] | Coloring ([2]; pH 6, 50° C., initial) | Odor ([2]; pH 6, 50° C., initial) | Coloring [2, 4] | Odor [2, 4] | Coloring [2, 5] | Odor [2, 5] | Melanin production inhibition effect (B16 melanoma 4A5 cells) | Collagen production promoting effect [3]
⊚ (⊚: 90% or more) | ⊚ (⊚: 90% or more) | ⊚ (⊚: 90% or more) | CCCCCCCCC(O)COC1=C(OCC(C)(C)O)C(=O)O[C@@H]1[C@@H](O)CO (stereo partly drawn) [Synthesis Example 36, 2-O-(2-hydroxyisobutyl)-3-O-(2-hydroxydecyl) ascorbic acid] | ++ (120-150%: ++) | ⊚ | ◯ (◯: Total score of 10 panelists is 20-24) | ◯ (◯: Total score of 10 panelists is 25 or more) | ◯ (◯: Total score of 10 panelists is 20-24) | ◯ (◯: Total score of 10 panelists is 25 or more) | ◯ (◯: Total score of 10 panelists is 20-24) | ++ (40-60%: ++) | + (100-120%: +)
⊚ (⊚: 90% or more) | ⊚ (⊚: 90% or more) | ⊚ (⊚: 90% or more) | CCCCCCCCCCCCOC1=C(OCC(C)(C)O)C(=O)O[C@@H]1[C@@H](O)CO [Synthesis Example 8, 2-O-(2-hydroxyisobutyl)-3-O-dodecyl ascorbic acid] | +++ (150%: +++) | ◯ (◯: Total score of 10 panelists is 25 or more) | ◯ (◯: Total score of 10 panelists is 20-24) | ◯ (◯: Total score of 10 panelists is 25 or more) | ◯ (◯: Total score of 10 panelists is 20-24) | ◯ (◯: Total score of 10 panelists is 25 or more) | ◯ (◯: Total score of 10 panelists is 20-24) | ++ (40-60%: ++) | ++ (120%: ++)
⊚ (⊚: 90% or more) | ⊚ (⊚: 90% or more) | ⊚ (⊚: 90% or more) | CCCCCCCCCCCCOCC(O)COC1=C(OCC(C)(C)O)C(C(O)CO)OC1=O (stereo not drawn) [Synthesis Example 31, 2-O-(2-hydroxy-3-O-dodecyl)-3-O-(2-hydroxyisobutyl) ascorbic acid] | ++ (120-150%: ++) | ◯ (◯: Total score of 10 panelists is 25 or more) | ⊚ (⊚: Total score of 10 panelists is 25 or more) | ◯ (◯: Total score of 10 panelists is 25 or more) | ◯ (◯: Total score of 10 panelists is 20-24) | ◯ (◯: Total score of 10 panelists is 25 or more) | ⊚ (⊚: Total score of 10 panelists is 25 or more) | + (20-40%: +) | ++ (120%: ++)
⊚ (⊚: 90% or more) | ⊚ (⊚: 90% or more) | ⊚ (⊚: 90% or more) | CCC(O)COC1=C(OCC(C)(C)O)[C@@H]([C@@H](O)CO)OC1=O (stereo partly drawn) [Synthesis Example 40, 3-O-(2-hydroxyisobutyl)-2-O-(2-hydroxybutyl) ascorbic acid] | ++ (120-150%: ++) | ◯ (◯: Total score of 10 panelists is 25 or more) | ◯ (◯: Total score of 10 panelists is 20-24) | ◯ (◯: Total score of 10 panelists is 25 or more) | ◯ (◯: Total score of 10 panelists is 20-24) | ◯ (◯: Total score of 10 panelists is 25 or more) | ◯ (◯: Total score of 10 panelists is 20-24) | ++ (40-60%: ++) | ++ (120%: ++)
– | – | – | CCCCCCCCOC1=C(OCC(C)(C)O)[C@@H]([C@@H](O)CO)OC1=O [Synthesis Example 21, 2-O-octyl-3-O-(2-hydroxyisobutyl) ascorbic acid] | +++ (150%: +++) | – | – | – | – | – | – | ++ (40-60%: ++) | ++ (120%: ++)
– | – | – | CCCCCCCCCCCCOC1=C(OCC(C)(C)O)[C@@H]([C@@H](O)CO)OC1=O [Synthesis Example 23, 2-O-dodecyl-3-O-(2-hydroxyisobutyl) ascorbic acid] | ++ (120-150%: ++) | – | – | – | – | – | – | +++ (60-100%: +++) | ++ (120%: ++)
– | – | – | CCCOC1=C(OCC(C)(C)O)[C@@H]([C@@H](O)CO)OC1=O [Synthesis Example 33, 2-O-propyl-3-O-(2-hydroxyisobutyl) ascorbic acid] | ++ (120-150%: ++) | – | – | – | – | – | – | ++ (40-60%: ++) | ++ (120%: ++)
– | – | – | CC(C)(O)COC1=C(OCC(O)CO)[C@@H]([C@@H](O)CO)OC1=O (stereo partly drawn) [Synthesis Example 13, 2-O-(2-hydroxyisobutyl)-3-O-glyceryl ascorbic acid] | ++ (120-150%: ++) | – | – | – | – | – | – | ++ (40-60%: ++) | ++ (120%: ++)
– | – | – | CCCOC1=C(OCC(C)(C)O)C(=O)O[C@@H]1[C@@H](O)CO [Synthesis Example 32, 2-O-(2-hydroxyisobutyl)-3-O-propylascorbic acid] | ++ (120-150%: ++) | – | – | – | – | – | – | ++ (40-60%: ++) | ++ (120%: ++)
– | – | – | C=CCOC1=C(OCC(C)(C)O)C(=O)O[C@@H]1[C@@H](O)CO [Synthesis Example 11, 2-O-(2-hydroxyisobutyl)-3-O-allylascorbic acid] | ++ (120-150%: ++) | – | – | – | – | – | – | +++ (60-100%: +++) | ++ (120%: ++)
– | – | – | CC(O)COC1=C(OCC(C)(C)O)C(=O)O[C@@H]1[C@@H](O)CO (stereo partly drawn) [Synthesis Example 34, 2-O-(2-hydroxyisobutyl)-3-O-(2-hydroxypropyl) ascorbic acid] | ++ (120-150%: ++) | – | – | – | – | – | – | +++ (60-100%: +++) | + (100-120%: +)
